PubChem BioAssay (NCI)
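Results reflect a 48-hour exposure of cells in 96-well plates to compound at five concentrations. The concentration for full growth arrest is given as TGI.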

What was measured:
Assay in all cases: NCI tumour cell line growth inhibition, 48 h
786-0 renal = test system: 786-0 renal
A498 renal = test system: A498 renal
A549 NSCLC = test system: A549 NSCLC
ACHN renal = test system: ACHN renal
BT-549 breast = test system: BT-549 breast
CAKI-1 renal = test system: CAKI-1 renal
CCRF-CEM leukemia = test system: CCRF-CEM leukemia
COLO 205 colon = test system: COLO 205 colon
DU-145 prostate = test system: DU-145 prostate
EKVX NSCLC = test system: EKVX NSCLC
HCC-2998 colon = test system: HCC-2998 colon
HCT-116 colon = test system: HCT-116 colon
HCT-15 colon = test system: HCT-15 colon
HL-60(TB) leukemia = test system: HL-60(TB) leukemia
HOP-62 NSCLC = test system: HOP-62 NSCLC
HOP-92 NSCLC = test system: HOP-92 NSCLC
HS 578T breast = test system: HS 578T breast
HT29 colon = test system: HT29 colon
IGROV1 ovarian = test system: IGROV1 ovarian
K-562 leukemia = test system: K-562 leukemia
KM12 colon = test system: KM12 colon
LOX IMVI melanoma = test system: LOX IMVI melanoma
M14 melanoma = test system: M14 melanoma
MALME-3M melanoma = test system: MALME-3M melanoma
MCF7 breast = test system: MCF7 breast
MDA-MB-231 breast = test system: MDA-MB-231 breast
MDA-MB-435 = test system: MDA-MB-435
MDA-N = test system: MDA-N
MOLT-4 leukemia = test system: MOLT-4 leukemia
NCI-H226 lung = test system: NCI-H226 lung
NCI-H460 lung = test system: NCI-H460 lung
NCI-H522 lung = test system: NCI-H522 lung
NCI/ADR-RES ovarian = test system: NCI/ADR-RES ovarian
OVCAR-3 ovarian = test system: OVCAR-3 ovarian
OVCAR-4 ovarian = test system: OVCAR-4 ovarian
OVCAR-5 ovarian = test system: OVCAR-5 ovarian
OVCAR-8 ovarian = test system: OVCAR-8 ovarian
PC-3 prostate = test system: PC-3 prostate
RPMI-8226 leukemia = test system: RPMI-8226 leukemia
RXF 393 renal = test system: RXF 393 renal
SF-268 CNS = test system: SF-268 CNS
SF-295 CNS = test system: SF-295 CNS
SF-539 CNS = test system: SF-539 CNS
SK-MEL-2 melanoma = test system: SK-MEL-2 melanoma
SK-MEL-28 melanoma = test system: SK-MEL-28 melanoma
SK-MEL-5 melanoma = test system: SK-MEL-5 melanoma
SK-OV-3 ovarian = test system: SK-OV-3 ovarian
SN12C renal = test system: SN12C renal
SNB-19 CNS = test system: SNB-19 CNS
SNB-75 CNS = test system: SNB-75 CNS
SR leukemia = test system: SR leukemia
SW-620 colon = test system: SW-620 colon
T-47D breast = test system: T-47D breast
TK-10 renal = test system: TK-10 renal
U251 CNS = test system: U251 CNS
UACC-257 melanoma = test system: UACC-257 melanoma
UACC-62 melanoma = test system: UACC-62 melanoma
UO-31 renal = test system: UO-31 renal
NCI-H23 lung = test system: NCI-H23 lung

CC(=O)N1CCc2c([nH]c3ccc(Br)cc23)C1c1ccccc1 (configuration not stated)
TGI (786-0 renal): > 10 µM
TGI (A498 renal): > 10 µM
TGI (A549 NSCLC): > 10 µM
TGI (ACHN renal): > 10 µM
TGI (BT-549 breast): > 10 µM
TGI (CAKI-1 renal): > 10 µM
TGI (CCRF-CEM leukemia): > 10 µM
TGI (COLO 205 colon): > 10 µM
TGI (DU-145 prostate): > 10 µM
TGI (EKVX NSCLC): > 10 µM
TGI (HCC-2998 colon): > 10 µM
TGI (HCT-116 colon): > 10 µM
TGI (HCT-15 colon): > 10 µM
TGI (HL-60(TB) leukemia): > 10 µM
TGI (HOP-62 NSCLC): > 10 µM
TGI (HOP-92 NSCLC): > 10 µM
TGI (HS 578T breast): > 10 µM
TGI (HT29 colon): > 10 µM
TGI (IGROV1 ovarian): > 10 µM
TGI (K-562 leukemia): > 10 µM
TGI (KM12 colon): > 10 µM
TGI (LOX IMVI melanoma): > 10 µM
TGI (M14 melanoma): > 10 µM
TGI (MALME-3M melanoma): > 10 µM
TGI (MCF7 breast): > 10 µM
TGI (MDA-MB-231 breast): > 10 µM
TGI (MDA-MB-435): > 10 µM
TGI (MDA-N): > 10 µM
TGI (MOLT-4 leukemia): > 10 µM
TGI (NCI-H226 lung): > 10 µM
TGI (NCI-H460 lung): > 10 µM
TGI (NCI-H522 lung): > 10 µM
TGI (NCI/ADR-RES ovarian): > 10 µM
TGI (OVCAR-3 ovarian): > 10 µM
TGI (OVCAR-4 ovarian): > 10 µM
TGI (OVCAR-5 ovarian): > 10 µM
TGI (OVCAR-8 ovarian): > 10 µM
TGI (PC-3 prostate): > 10 µM
TGI (RPMI-8226 leukemia): > 10 µM
TGI (RXF 393 renal): > 10 µM
TGI (SF-268 CNS): > 10 µM
TGI (SF-295 CNS): > 10 µM
TGI (SF-539 CNS): > 10 µM
TGI (SK-MEL-2 melanoma): > 10 µM
TGI (SK-MEL-28 melanoma): > 10 µM
TGI (SK-MEL-5 melanoma): > 10 µM
TGI (SK-OV-3 ovarian): > 10 µM
TGI (SN12C renal): > 10 µM
TGI (SNB-19 CNS): > 10 µM
TGI (SNB-75 CNS): > 10 µM
TGI (SR leukemia): > 10 µM
TGI (SW-620 colon): > 10 µM
TGI (T-47D breast): > 10 µM
TGI (TK-10 renal): > 10 µM
TGI (U251 CNS): > 10 µM
TGI (UACC-257 melanoma): > 10 µM
TGI (UACC-62 melanoma): > 10 µM
TGI (UO-31 renal): > 10 µM

CCOc1cc2c(NCCCN(CCO)CCO)ncnc2c(OCC)c1OCC
TGI (786-0 renal): > 100 µM
TGI (A498 renal): > 100 µM
TGI (A549 NSCLC): > 100 µM
TGI (ACHN renal): > 100 µM
TGI (BT-549 breast): > 100 µM
TGI (CAKI-1 renal): > 100 µM
TGI (CCRF-CEM leukemia): > 100 µM
TGI (COLO 205 colon): > 100 µM
TGI (DU-145 prostate): > 100 µM
TGI (EKVX NSCLC): > 100 µM
TGI (HCC-2998 colon): > 100 µM
TGI (HCT-116 colon): > 100 µM
TGI (HCT-15 colon): > 100 µM
TGI (HL-60(TB) leukemia): > 100 µM
TGI (HOP-62 NSCLC): > 100 µM
TGI (HOP-92 NSCLC): > 88 µM
TGI (HS 578T breast): > 100 µM
TGI (HT29 colon): > 100 µM
TGI (IGROV1 ovarian): > 100 µM
TGI (K-562 leukemia): > 100 µM
TGI (KM12 colon): > 100 µM
TGI (LOX IMVI melanoma): > 100 µM
TGI (M14 melanoma): > 100 µM
TGI (MALME-3M melanoma): > 100 µM
TGI (MCF7 breast): > 100 µM
TGI (MDA-MB-231 breast): > 100 µM
TGI (MDA-MB-435): > 100 µM
TGI (MDA-N): > 100 µM
TGI (MOLT-4 leukemia): > 100 µM
TGI (NCI-H226 lung): > 100 µM
TGI (NCI-H23 lung): > 100 µM
TGI (NCI-H460 lung): > 100 µM
TGI (NCI-H522 lung): > 100 µM
TGI (NCI/ADR-RES ovarian): > 100 µM
TGI (OVCAR-3 ovarian): > 100 µM
TGI (OVCAR-4 ovarian): > 100 µM
TGI (OVCAR-5 ovarian): > 100 µM
TGI (OVCAR-8 ovarian): > 100 µM
TGI (PC-3 prostate): > 100 µM
TGI (RPMI-8226 leukemia): > 100 µM
TGI (RXF 393 renal): > 100 µM
TGI (SF-268 CNS): > 100 µM
TGI (SF-295 CNS): > 100 µM
TGI (SF-539 CNS): > 100 µM
TGI (SK-MEL-2 melanoma): > 100 µM
TGI (SK-MEL-28 melanoma): > 100 µM
TGI (SK-MEL-5 melanoma): > 100 µM
TGI (SK-OV-3 ovarian): > 100 µM
TGI (SN12C renal): > 100 µM
TGI (SNB-19 CNS): > 100 µM
TGI (SNB-75 CNS): > 100 µM
TGI (SR leukemia): > 100 µM
TGI (SW-620 colon): > 100 µM
TGI (T-47D breast): > 100 µM
TGI (TK-10 renal): > 100 µM
TGI (U251 CNS): > 100 µM
TGI (UACC-257 melanoma): > 100 µM
TGI (UACC-62 melanoma): > 100 µM
TGI (UO-31 renal): > 100 µM
